Reference: patent publication US20230009145A1, “INHIBITION OF TMEM16A BY BENZBROMARONE OR NICLOSAMIDE FOR TREATING POLYCYSTIC KIDNEY DISEASE AND/OR POLYCYSTIC LIVER DISEASE” (UNIVERSITÄT REGENSBURG, priority 2019, published 2023)
“Also recorded” adds a separate entry of the source.

Experiments:
[1] = test system: Polycystin-1-deficient collecting duct (plMDCK) cells; test: plMDCK cyst growth in collagen I matrix; format: cell-based, dog; details: 10 μM forskolin, 5 days; for mean cyst volumes: 0.1 μM or 1 μM, vs control
Experimental: Polycystin-1-deficient collecting duct ([…]) cells were resuspended within a collagen I matrix where they spontaneously form cysts and grow in a secretion-dependent manner in the presence of 10 μM forskolin for 5 days. Medium was supplemented with either 0.1 μM or 1 μM niclosamide or 0.1 μM or 1 μM nitazoxanide. Thereafter, cyst volumes were analyzed. […] The effect of niclosamide and derivatives thereof, e.g. nitazoxanide, on cyst growth was analyzed. Particularly, it was analyzed whether there is a dose-dependent effect on cyst growth. Polycystin-1-deficient collecting duct (p1MDCK) cells were resuspended in a collagen I matrix to form cysts in vitro and were cultured in the presence of […] forskolin for 5 days. The cells were treated with either 0.1 μM or 1 μM niclosamide, or with 0.1 μM or 1 μM of an exemplary niclosamide derivative, namely nitazoxanide.

M1 collecting duct cells [2] = test: M1 renal organoid / cyst model (organoid/cyst volume in matrigel); format: cell-based, mouse; details: for increase in cyst volume upon knockdown of PKD1/PKD2: M1 organoids, shPKD1/shPKD2, 5 μM inhibitor
Experimental: M1 cells were resuspended as a single-cell suspension in 50/50% Matrigel/type I collagen and transferred into 24-well plates (30×10^3 cells/well, four wells per condition) for 9 days. Medium was changed every 3 days. Every 3 days thirty random visual fields per well were photographed with an Axiovert 200 microscope (Zeiss, Germany). Cyst area of the lumina (˜30-150 cysts per condition and single experimental procedure) were measured with AxioVision (Zeiss, Germany). Cyst volume was then estimated using the formula for the volume of a sphere, 4/3πr^3.

M1 collecting duct cells [3] = test: Ki-67 proliferation staining in M1 organoids/cysts; format: cell-based, mouse; details: M1 organoids, shPKD1/shPKD2, 5 μM inhibitor
Experimental: M1 cells grown under confluent conditions for 4 days on glass coverslips and M1 organoids grown for 6 days were fixed for 10 min with methanol at −20° C. Organoids were isolated with ice cold 5 mM EDTA in PBS and seeded in poly-L-lysine coated coverslips. After seeded, cells were fixed for 10 min with methanol at −20° C. After washing, the cells were permeabilized with 0.5% (v/v, PBS) Triton X-100 for 10 min and blocked with 1% (w/v, PBS) bovine serum albumin for 1 h at room temperature. The cells were incubated overnight with primary antibodies (moo) against rabbit anti-TMEM16A (Davids Biotechnologie, Regensburg, Germany), or rat anti-Ki-67 (DAKO, M7249, Germany) or mouse anti-acetylated tubulin (T7451, Sigma-Aldrich, Germany). Binding of the primary antibody was visualized by incubation with appropriate secondary antibodies conjugated with Alexa Fluor 488 or Alexa Fluor 546 (1:300, Molecular Probes, Invitrogen). Nuclei were stained with Hoe33342 ([…] PBS, AppliChem, Darmstadt, Germany). Glass coverslips were mounted on glass slides with fluorescent mounting medium (DakoCytomation, Hamburg, Germany) and examined with an ApoTome Axiovert 200M fluorescence microscope (Zeiss, Germany).

PKD1-/- mice (ADPKD) [4] = test: Inhibition of cyst growth in vivo in PKD1-/- mice; set-up: species or system mouse; details: 1 μg/kg/day I.P. for 30 days
Experimental: Inducible and tubule-specific PKD1 knockout (PKD1−/−) leads to ADPKD and polycystic kidney disease. Wt mice and mice with a knockout in the gene PKD1 were treated with benzbromarone (1 μg/kg/day intraperitoneal (I.P.) benzbromarone (BBR)) for 30 days starting 4 weeks after induction of the PKD1 knockout at postnatal (PN) 20-22.

PKD1-/- mice (ADPKD) [5] = test: Ki-67 cell proliferation in kidneys of PKD1-/- mice; format: in vivo, mouse; details: kidneys of PKD1-/- mice treated with benzbromarone
From the text: Cell proliferation was examined in kidneys of control animals (PKD+/+) and PKD1−/− animals using the proliferation marker Ki-67.

TMEM16A = target: T1, TMEM16A (Homo sapiens, UniProt Q5XXA6); details: references [1, 2]; cited from earlier work
T1 sequence (Q5XXA6 1-986): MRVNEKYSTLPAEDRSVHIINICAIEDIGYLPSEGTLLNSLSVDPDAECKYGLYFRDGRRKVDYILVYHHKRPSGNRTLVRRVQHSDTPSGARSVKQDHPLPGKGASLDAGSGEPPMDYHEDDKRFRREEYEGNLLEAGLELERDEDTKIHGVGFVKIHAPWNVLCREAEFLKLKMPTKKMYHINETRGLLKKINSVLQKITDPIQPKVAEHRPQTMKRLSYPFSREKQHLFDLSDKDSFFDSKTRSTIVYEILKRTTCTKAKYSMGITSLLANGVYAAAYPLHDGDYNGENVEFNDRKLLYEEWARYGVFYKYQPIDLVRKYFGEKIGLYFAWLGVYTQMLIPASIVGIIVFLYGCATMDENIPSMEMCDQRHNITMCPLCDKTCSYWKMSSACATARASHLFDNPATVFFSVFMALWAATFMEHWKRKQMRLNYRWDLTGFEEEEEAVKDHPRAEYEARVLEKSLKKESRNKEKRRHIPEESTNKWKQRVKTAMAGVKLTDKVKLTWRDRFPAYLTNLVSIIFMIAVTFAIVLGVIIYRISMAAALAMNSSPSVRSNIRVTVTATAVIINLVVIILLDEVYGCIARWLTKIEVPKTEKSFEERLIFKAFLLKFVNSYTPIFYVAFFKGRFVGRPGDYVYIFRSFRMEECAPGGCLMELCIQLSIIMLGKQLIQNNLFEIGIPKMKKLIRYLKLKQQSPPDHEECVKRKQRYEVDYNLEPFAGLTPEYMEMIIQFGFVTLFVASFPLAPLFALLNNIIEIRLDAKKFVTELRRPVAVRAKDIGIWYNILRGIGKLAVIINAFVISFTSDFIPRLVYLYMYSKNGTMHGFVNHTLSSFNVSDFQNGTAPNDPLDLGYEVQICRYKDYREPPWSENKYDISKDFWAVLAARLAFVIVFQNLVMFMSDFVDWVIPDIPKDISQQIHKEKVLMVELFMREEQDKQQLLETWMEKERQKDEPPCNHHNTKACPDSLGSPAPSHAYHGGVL

[6] = test system: mouse primary renal epithelial and M1 collecting duct cells; test: Measurement of [Ca2+]i (Fura-2); format: cell-based; details: for enhanced Ca2+ entry (SOCE) / enhanced CPA-induced store release: PKD1/PKD2 knockout cells; for enhanced Ca2+ entry (SOCE): 5 μM; for enhanced CPA-induced store release: CPA 10 μM, inhibitor 5 μM
Experimental: Primary cilium and membrane Ca^2+ signals were detected after MDCK M2 and C7 cell were transfected with 5HT6-mCherry-GECO1.0 (5HT6-GECO, Addgene, Cambridge, Mass., USA). Cells were grown to confluence in glass coverslips and serum starved for 4-6 days to induce cilium formation. Afterwards, the cells were mounted and perfused in Ringer's solution. The mCherry fluorescence of the indicator was used to localize the Ca^2+ sensor. Therefore, before each experiment, a photo was taken exciting the 5HT6-GECO at 560 nm, and the emission was recorded between 620±30 nm using a CCD-camera (CoolSnap HQ, Visitron Systems, Germany). To measure the ciliary Ca^2+ changes, 5HT6-GECO was excited at 485/405 nm, and the emission was recorded between 535±12.5 nm. The results for [Ca^2+ ]cilium and [Ca^2+]cyt were obtained at 485/405 nm changes and given in ratio. Measurement of the global cytosolic Ca^2+ changes were performed as described recently. In brief, cells were loaded with 5 μM Fura-2, AM (Molecular Probes) in OptiMEM (Invitogen) with 0.02% pluronic (Molecular Probes) for 1 h at RT and 30 min at 37° C. Fura-2 was excited at 340/380 nm, and the emission was recorded between 470 and 550 nm using a CCD-camera (CoolSnap HQ, Visitron Systems, Germany). Control of experiment, imaging acquisition, and data analysis were done with the software package Meta-Fluor (Universal imaging, USA). [Ca2+]i was calculated from the 340/380 nm fluorescence ratio after background subtraction. The formula used to calculate [Ca^2+]i was [Ca^2+]i=Kd×(R−Rmin)/(Rmax−R)×(Sf2/Sb2), where R is the observed fluorescence ratio. The values Rmax and Rmin (maximum and minimum ratios) and the constant Sf2/Sb2 (fluorescence of free and Ca^2+-bound Fura-2 at 380 nm) were calculated using 1 μmol/liter ionomycin (Calbiochem), 5 μmol/liter nigericin, 10 μmol/liter monensin (Sigma), and 5 mmol/liter EGTA to equilibrate intracellular and extracellular Ca^2+ in intact Fura-2-loaded cells. The dissociation constant for the Fura-2·Ca^2+ complex was taken as 224 nmol/liter. ER Ca^2+ signals were detected in Ca^2+ sensor ER-LAR-GECO1 (Addgene, Cambridge, Mass., USA) expressing M1 cells. Cells were excited at 560 nm and emission was recorded between 620±30 nm.

CC(=O)Oc1ccccc1C(=O)Nc1ncc([N+](=O)[O-])s1 [nitazoxanide]
mean cyst volumes [1]: inhibit cyst growth in a dose-dependent manner; also recorded: significantly decreased | reduction in cyst volumes, 1 μM compared to 0.1 μM [1]: higher reduction in cyst volumes

CCCCNc1cc(C(=O)O)cc(S(N)(=O)=O)c1Oc1ccccc1 [bumetanide]
formation of the M1 renal organoid (M1 collecting duct cells [2]; M1 organoids without knockdown, bumetanide 100 μM continuously in matrigel): did not interfere with the formation of the organoid | increase in organoid volume upon knockdown of PKD1 or PKD2 (M1 collecting duct cells [2]; shPKD1/shPKD2 M1 cells, bumetanide 100 μM, 9 days): inhibited

N=C(N)NC(=O)c1nc(Cl)c(N)nc1N [amiloride]
M1 organoid volume when grown in amiloride (M1 collecting duct cells [2]; M1 renal organoids, data not shown): increase their volume

CCc1oc2ccccc2c1C(=O)c1cc(Br)c(O)c(Br)c1 [benzbromarone]
increase in cyst volume upon knockdown of PKD1/PKD2 (M1 collecting duct cells [2]): inhibition | increase in cyst volume upon knockdown of PKD1/PKD2 (M1 collecting duct cells [2]; listed as Benzbromarone): blocked increase in volume | increase in proliferation (Ki-67) upon knockdown of PKD1/PKD2 (M1 collecting duct cells [3]): inhibition | increase in proliferation (Ki-67) upon knockdown of PKD1/PKD2 (M1 collecting duct cells [3]; listed as Benzbromarone): blocked increase in volume and proliferation | cyst development / cyst growth (PKD1-/- mice (ADPKD) [4]): remarkable delay in cyst development | cyst development / cyst growth (PKD1-/- mice (ADPKD) [4]; listed as Benzbromarone): significantly inhibits cyst growth | pathologic cell proliferation (Ki-67) (PKD1-/- mice (ADPKD) [5]): inhibition of pathologic cell proliferation; also recorded: largely abolished pathologic proliferation | inhibition of TMEM16A (TMEM16A): potently inhibit

COc1ccc(CCCOC(Cn2ccnc2)c2ccc(OC)cc2)cc1 (stereo not shown) [SK&F96365]
enhanced Ca2+ entry (SOCE) [6]: inhibited enhanced Ca^2+ entry | enhanced CPA-induced store release [6]: abolished enhanced CPA-induced store release

O=C(Nc1ccc([N+](=O)[O-])cc1Cl)c1cc(Cl)ccc1O [niclosamide, 5-Chlor-N-(2-chlor-4-nitrophenyl)-2-hydroxybenzamid]
mean cyst volumes [1]: inhibit cyst growth in a dose-dependent manner; also recorded: significantly decreased | reduction in cyst volumes, 1 μM compared to 0.1 μM [1]: higher reduction in cyst volumes | inhibition of TMEM16A (TMEM16A): potent inhibitor

CC(C)(C)C1CCc2c(sc(NC(=O)c3ccco3)c2C(=O)O)C1 (stereo not shown) [CaCCinhAO1]
increase in cyst volume upon knockdown of PKD1/PKD2 (M1 collecting duct cells [2]): blocked increase in volume | increase in cyst volume upon knockdown of PKD1/PKD2 (M1 collecting duct cells [2]; listed as CaCCinhA01): inhibition | increase in proliferation (Ki-67) upon knockdown of PKD1/PKD2 (M1 collecting duct cells [3]): blocked increase in volume and proliferation | increase in proliferation (Ki-67) upon knockdown of PKD1/PKD2 (M1 collecting duct cells [3]; listed as CaCCinhA01): inhibition

Cc1nnsc1C(=O)Nc1ccc(-n2nc(C(F)(F)F)cc2C(F)(F)F)cc1 [YM58483]
enhanced Ca2+ entry (SOCE) [6]: inhibited enhanced Ca^2+ entry | enhanced CPA-induced store release [6]: abolished enhanced CPA-induced store release

Cn1c(=O)c2c(ncn2C)n(C)c1=O [caffeine]
intracellular Ca2+ ([6]; mouse wt and PKD1-/- primary renal epithelial and M1 collecting duct cells): did not increase intracellular Ca^2+
